In patent publication EP0394122A2, “Use of tetracyclines to manufacture a medicament for the treatment and prevention of AIDS” (priority 1989, dated 1990):

What was measured:
Format in all cases: cell-based
[1] = test system: virus HIV (LAV-1-BRU); assay: Protection against the cytopathogenic effect of HIV in infected CEM clone 13 cells (MTT viability)
Description: Le test est réalisé sur la lignée lymphoblastoïde CEM clone 13. Dans une microplaque de 96 puits on dépose 25 µl/puits d'une solution de produit à tester ou de tampon phosphate isotonique (TPI) dans le cas des contrôles. Les produits sont étudiés à différentes concentrations (souvent 8), à raison de 4 puits par concentration. On ajoute alors 125 µl d'une suspension de cellules CEM dans le milieu RPMI contenant 10 % de sérum de veau foetal, 40 U/ml de pénicilline, 40 µg/ml de streptomycine et 5 µg/ml de polybrène (3500 cellules par puits) et les microplaques sont incubées une heure à 37°C, sous une atmosphère contenant 5 % de gaz carbonique. Pour chaque concentration, l'essai est partagé en 2 parties : une partie sur cellules infectées, pour la détermination de l'activité antivirale et l'autre partie sur cellules non infectées, pour déterminer la cytotoxicité des produits. On infecte alors la première série avec HIV (100 µl par puit d'une suspension de virus LAV-1-BRU contenant 200-300 TCID50) tandis que l'autre série reçoit 100 µl de milieu RPMI tel que défini précédemment. Au bout de 7 jours d'incubation, 175 µl de surnageant sont prélevés et rejetés. La viabilité cellulaire est déterminée selon une modification de la technique décrite par R. Pauwels et coll., J. Virol. Meth., 20, 309-321 (1988).
Les puits, contenant encore les cellules (infectées ou non infectées), reçoivent 10 µl d'une solution de MTT (méthylthiazoletétrazolium) à 5 mg/ml dans du tampon phosphate isotonique. Pendant une période d'incubation de 4 heures, le MTT est converti en un sel de formazan (bleu) à l'intérieur des cellules vivantes et proportionnellement à leur nombre, alors que rien n'apparaît dans les puits ne contenant plus que des cellules mortes. On ajoute alors 120 µl d'isopropanol (contenant 0,04 mole/l d'acide chlorhydrique) et les microplaques sont agitées jusqu'à la solubilisation du bleu de formazan. L'absorption à 540 nm est lue avec un lecteur automatique de réactions ELISA en microplaques.
Pour les essais de plus longue durée, on procède comme décrit précédemment jusqu'au jour 7. A ce moment, 100 µl de cellules sont prélevés pour mesurer la proportion de cellules vivantes et le restant est remis en culture avec du milieu frais contenant les produits aux mêmes concentrations. Cette opération est répétée tous les 4 jours.

[2] = test system: lymphocytes humains; assay: Antiproliferative activity (cytotoxicity) on non-infected human lymphocytes (MTT viability); settings: day 21
Description: (§1) La source des leucocytes humains est un stock congelé en N₂ liquide (100 x 10⁶ cellules/ampoule) de leucocytes obtenus sur cytaphérèse d'individus (donneurs) sains. Au moment de l'essai, les cellules sont décongelées, mises en suspension dans 80 % de sérum de veau foetal (SVF) et 20 % de diméthylsulfoxyde et centrifugées à 1000 rpm (10 minutes). Le culot est mis en suspension dans un milieu RPMI [contenant 10 % Lymphocult (Interleukine 2 en provenance de Biotest Diagnostic), 10 % de SVF, pénicilline et streptomycine, respectivement 40 U/ml et 40 µg/ml], à raison de 1 x 10⁶ cellules/ml. Habituellement, on utilise un flacon de culture cellulaire contenant 40 à 60 ml de cette suspension cellulaire. Les cellules sont incubées 4 jours en présence de phytohémagglutinine PHA (0,1 % DIFCO), à 37°C sous une atmosphère contenant 95 % d'air et 5 % de gaz carbonioue. Les cellules sont alors centrifugées, lavées une fois dans du milieu frais (ci-dessus) et remises en suspension dans le même milieu à 1 x 10⁶ cellules/ml [(RPMI 10 % de SVF, 10 % de Lymphocult-antibiotiques ci-dessus) mais contenant 10 U/ml d'anticorps anti-interferon (IFN α) 5 µg/ml de prolybrène.
(§2) 200 µl de cette suspension cellulaire (200.000 cellules) sont déposés dans des puits d'une microplaque de cultures (à 96 puits). A chaque puits, on ajoute 25 µl du produit à tester [dilué 10 fois dans du tampon phosphate isotonique (TPI)] ou 25 µl du solvant TPI pour le contrôle. L'essai est fait en 2 séries : sur cellules infectées (pour déterminer l'activité antivirale) et sur cellules non infectées pour déterminer l'activité antiproliférative (cytotoxicité). On infecte alors avec 25 µl du virus HIV (souche LAV-BRU), alors que l'autre série reçoit (par puits) 25 µl du milieu (ci-dessus). Les cultures sont incubées 7 jours à 37°C (95 % d'air, 5 % de CO₂). 200 µl de surnageant sont alors prélevés, rejetés ou utilisés pour la détermination de l'activité transcriptase inverse. Les cellules du fond (sous 50 µl) sont alors soit testées pour leur viabilité (test MTT), soit additionnées de 200 µl de milieu frais (ci-dessus). Dans ce dernier cas, l'incubation est prolongée pendant encore 7 jours (test au jour 14). L'opération peut être répétée une semaine après (test au jour 21).

[3] = test system: virus HIV (souche LAV-BRU); assay: Inhibition of the cytopathogenic effect of HIV in infected human lymphocyte culture (MTT viability); settings: 21 days after infection, human lymphocytes
Description: as §1, §2

Molecule | Cellules infectées Densité optique ([1]; 0,01 µg/ml, JOUR 14) | Cellules infectées Densité optique ([1]; 0,01 µg/ml, JOUR 18) | Cellules infectées Densité optique ([1]; 0,01 µg/ml, day 7) | Cellules infectées Densité optique ([1]; 0,04 µg/ml, JOUR 14) | Cellules infectées Densité optique ([1]; 0,04 µg/ml, JOUR 18) | Cellules infectées Densité optique ([1]; 0,04 µg/ml, day 7) | Cellules infectées Densité optique ([1]; 0,12 µg/ml, JOUR 14) | Cellules infectées Densité optique ([1]; 0,12 µg/ml, JOUR 18) | Cellules infectées Densité optique ([1]; 0,12 µg/ml, day 7) | Cellules infectées Densité optique ([1]; 0,37 µg/ml, JOUR 14) | Cellules infectées Densité optique ([1]; 0,37 µg/ml, JOUR 18) | Cellules infectées Densité optique ([1]; 0,37 µg/ml, day 7) | Cellules infectées Densité optique ([1]; 10 µg/ml, JOUR 14) | Cellules infectées Densité optique ([1]; 10 µg/ml, JOUR 18) | Cellules infectées Densité optique ([1]; 10 µg/ml, day 7) | Cellules infectées Densité optique ([1]; 30 µg/ml, day 7) | Cellules infectées Densité optique ([1]; 1,11 µg/ml, JOUR 14) | Cellules infectées Densité optique ([1]; 1,11 µg/ml, JOUR 18) | Cellules infectées Densité optique ([1]; 1,11 µg/ml, day 7) | Cellules infectées Densité optique ([1]; 3,33 µg/ml, JOUR 14) | also measured
CN(C)c1ccc(O)c2c1C[C@H]1C[C@H]3[C@H](N(C)C)C(O)=C(C(N)=O)C(=O)[C@@]3(O)C(O)=C1C2=O [Exemple 5, minocycline] | 0,300 | 0,250 | 0,660 | 0,450 | 0,250 | 0,720 | 0,620 | 0,450 | 0,890 | 1,250 | 1,000 | 1,210 | 0,100 | 0,100 | 0,450 | 0,320 | 1,250 | 0,950 | 1,510 | 0,400 | Cellules infectées Densité optique ([1]; 3,33 µg/ml, JOUR 18): 0,350; Cellules infectées Densité optique ([1]; 3,33 µg/ml, day 7): 1,340; Cellules non infectées Densité optique ([2]; 0,04 µg/ml): 0,836; Cellules non infectées Densité optique ([2]; 0,12 µg/ml): 0,775; Cellules non infectées Densité optique ([2]; 0,37 µg/ml): 0,850; Cellules non infectées Densité optique ([2]; 10 µg/ml): 0,833; Cellules non infectées Densité optique ([2]; 1,11 µg/ml): 0,980; Cellules non infectées Densité optique ([2]; 3,33 µg/ml): 0,900; Cellules infectées Densité optique ([3]; 0,04 µg/ml): 0,530; Cellules infectées Densité optique ([3]; 0,12 µg/ml): 0,435; Cellules infectées Densité optique ([3]; 0,37 µg/ml): 0,640; Cellules infectées Densité optique ([3]; 10 µg/ml): 0,540; Cellules infectées Densité optique ([3]; 1,11 µg/ml): 0,835; Cellules infectées Densité optique ([3]; 3,33 µg/ml): 0,750
doxycycline [Exemple 2] | 0,250 | 0,240 | 0,820 | 0,300 | 0,275 | 0,785 | 0,450 | 0,250 | 0,720 | 0,550 | 0,300 | 1,000 | 0,100 | 0,100 | 0,660 | 0,200 | 0,880 | 0,700 | 1,240 | 0,750 | Cellules infectées Densité optique ([1]; 3,33 µg/ml, JOUR 18): 0,750; Cellules infectées Densité optique ([1]; 3,33 µg/ml, day 7): 1,370; Cellules non infectées Densité optique ([2]; 0,04 µg/ml): 0,775; Cellules non infectées Densité optique ([2]; 0,12 µg/ml): 0,765; Cellules non infectées Densité optique ([2]; 0,37 µg/ml): 0,853; Cellules non infectées Densité optique ([2]; 10 µg/ml): 0,103; Cellules non infectées Densité optique ([2]; 1,11 µg/ml): 0,835; Cellules non infectées Densité optique ([2]; 3,33 µg/ml): 0,670; Cellules infectées Densité optique ([3]; 0,04 µg/ml): 0,530; Cellules infectées Densité optique ([3]; 0,12 µg/ml): 0,590; Cellules infectées Densité optique ([3]; 0,37 µg/ml): 0,550; Cellules infectées Densité optique ([3]; 10 µg/ml): 0,125; Cellules infectées Densité optique ([3]; 1,11 µg/ml): 0,773
